Results as given in US11389423B2, “Pharmaceutical composition, excipient for the composition and use of the composition” (priority 2018, dated 2022).

Test system: striatal levels of dopamine, DOPAC and AVM
Assay: Determination of striatal dopamine, DOPAC and HVA levels (HPLC-ECD), MPTP model
Type: in vivo, rats
Description: For the experiments with MPTP (neuroprotection), the animals were divided into the following experimental groups: • MPTP+placebo • MPTP+CBD-SINT 12 mg/kg • MPTP+CBD-SINT 36 mg/kg • MPTP+CBD-SINT 120 mg/kg • Sham+placebo • Naive
CBD-SINT and placebo were administered orally (gavage) for 18 days prior to the administration of the neurotoxin by stereotactic surgery, and for another 10 days after surgery. After the administration of the neurotoxin, the behavioral (locomotor activity) and biochemical (brain dopamine dosage) parameters were evaluated after 24 hours and after 10 days. The memory tests (Morris water maze) were performed daily from day 1 to day 10 after the administration of the neurotoxin (FIG. 13).
The rats were submitted to stereotactic surgery (stereotactic—David Kopf, model 957L) and received bilateral microinfusion of MPTP or 6-OHDA (different groups of rats) directly into the substantia nigra. For surgery, the following stereotaxic coordinates were used: anteroposterior: 5.0 mm from the bregma; mediolateral: ±2.1 mm from the midline and dorsoventral: −7.7 mm from the cranial vault (Paxinos and Watson, 1986). Then, 100 μg MPTP (diluted in 1 μL saline, with a flow of 0.33 μL/min) or 8 μg 6-OHDA (diluted in 2 μL saline with 0.2 μg/μL ascorbic acid, with a flow rate of 0.33 μL/min) were injected. The microinfusions were performed with the aid of a needle (30 gauge) connected to a polyethylene tube adapted to a […] micro-syringe (Hamilton, USA), which in turn, is fitted into an infusion pump (Harvard Apparatus, USA). After the end of the microinfusion, the needle was kept in place for another 2 minutes to prevent reflux of the neurotoxins. Then, the scalp was sutured, and the animals were removed from the stereotaxic. The rats were then placed in its original cages. The animals in the Sham groups were subject to the same surgical procedure, however without receiving the neurotoxins, being only introduced to the needle in the same stereotactic coordinates. The rats of naive groups were not subject to stereotactic surgery but were removed from the housing cage for handling for a few hours.
After the last set of experiments, the animals from the nigrostriatal treatment with MPTP and its respective controls were euthanized by decapitation. The levels of dopamine (DA) and its metabolites 3,4-dihydroxyphenylacetic acid (DOPAC) and homovanilic acid (HVA) were determined by high-performance liquid chromatography with an electrochemical detector (HPLC-ECD) according to Luo et al. (2009).
Briefly, the striatum was dissected, weighed, and homogenized in 0.2 M cold perchloric acid. The sample was then centrifuged twice at 14,000 g for 15 min at 4° C. […]

For C=C(C)[C@@H]1CCC(C)=C[C@H]1c1c(O)cc(CCCCC)cc1O [CBD-SINT, Cannabidiol], the “striatal levels of DOPAC” value (MPTP rats, 12 mg/kg orally) was “significantly increase”, the “striatal levels of dopamine” value (MPTP rats, 12 mg/kg orally) was “significantly increase” and the “levels of all markers after treatment vs naive and Sham groups” value (MPTP rats, 12, 36 and 120 mg/kg orally) was “statistically lower”. The “striatal concentration of all evaluated markers (dopamine, DOPAC and AVM)” value (MPTP rats, 36 and 120 mg/kg orally) was “increased”.
